Experimental data taken from ChEMBL document CHEMBL1833947, “Synthesis and biological investigation of potential atypical antipsychotics with a tropane core. Part 1” (Eur J Med Chem, 2011).
Activity calls are given as the source filed them. No cut-off for these calls is given here.

Each compound was assayed on Mus musculus (assay: Antipsychotic activity in mouse assessed as reversal of DOI-induced head twitches at 5 mg/kg, ip administered 30 mins before DOI challenge). Conditions: route intraperitoneal.
Type: functional

Structure (SMILES)	Activity
COc1cc(N)c(Cl)cc1C(=O)N[C@H]1CC2CC[C@H](C1)N2Cc1ccco1 (single isomer, unassigned)	68%
O=C(N[C@@H]1CC2CC[C@H](C1)N2CC1CCCO1)c1ccc2ccccc2c1 (single isomer, unassigned)	26%
COc1cccc(C(=O)N[C@@H]2CC3CC[C@H](C2)N3Cc2ccco2)c1OC (single isomer, unassigned; 4b)	33%

Species on record: Mus musculus
Test: not given
Conditions: Swiss albino, 20 mg/kg

Structure (SMILES)	deltaT
COc1cc(N)c(Cl)cc1C(=O)N[C@H]1CC2CC[C@H](C1)N2Cc1ccco1 (single isomer, unassigned)	-1.8 °C

Species on record: Mus musculus
Test: not given
Conditions: Swiss albino, 20 mg/kg
Remark: another data set of the same source

Structure (SMILES)	deltaT
COc1cc(N)c(Cl)cc1C(=O)N[C@H]1CC2CC[C@H](C1)N2Cc1ccco1 (single isomer, unassigned)	-1 °C

Each compound was assayed on Rattus norvegicus (assay: Induction of 5HT1A receptor in rat assesses as lower lip retractions at 20 mg/kg, iv after 15 mins (reference value: 0.1 +/- 0.1 retractions)). Conditions: not given.
Type: functional

Structure (SMILES)	Activity
COc1cc(N)c(Cl)cc1C(=O)N[C@H]1CC2CC[C@H](C1)N2Cc1ccco1 (single isomer, unassigned)	0.1

Species on record: Mus musculus
Test: not given
Conditions: Swiss albino, 5 mg/kg

Structure (SMILES)	deltaT
COc1cc(N)c(Cl)cc1C(=O)N[C@H]1CC2CC[C@H](C1)N2Cc1ccco1 (single isomer, unassigned)	0 °C

The compounds below were run on Mus musculus (assay: Antidepressant-like activity in Swiss albino mouse assessed as immobilization time at 10 mg/kg, ip after 30 mins by forced swim test). Conditions: not given.
Type: functional

Structure (SMILES)	Activity
COc1cc(N)c(Cl)cc1C(=O)N[C@H]1CC2CC[C@H](C1)N2Cc1ccco1 (single isomer, unassigned)	inactive

Species on record: Mus musculus
Test: not given
Conditions: Swiss albino, 20 mg/kg
Remark: another data set of the same source

Structure (SMILES)	deltaT
COc1cc(N)c(Cl)cc1C(=O)N[C@H]1CC2CC[C@H](C1)N2Cc1ccco1 (single isomer, unassigned)	-1.3 °C

Species on record: Mus musculus
Test: not given
Conditions: Swiss albino, 10 mg/kg

Structure (SMILES)	deltaT
COc1cc(N)c(Cl)cc1C(=O)N[C@H]1CC2CC[C@H](C1)N2Cc1ccco1 (single isomer, unassigned)	-0.1 °C

Each compound was assayed against T1, 5-hydroxytryptamine receptor 1A (Rattus norvegicus, UniProt P19327) (assay: Displacement of [3H]8OH-DPAT from 5HT1A in rat brain cerebral cortex after 15 mins by scintillation counting). Conditions: not given.
T1 sequence (P19327 whole entry): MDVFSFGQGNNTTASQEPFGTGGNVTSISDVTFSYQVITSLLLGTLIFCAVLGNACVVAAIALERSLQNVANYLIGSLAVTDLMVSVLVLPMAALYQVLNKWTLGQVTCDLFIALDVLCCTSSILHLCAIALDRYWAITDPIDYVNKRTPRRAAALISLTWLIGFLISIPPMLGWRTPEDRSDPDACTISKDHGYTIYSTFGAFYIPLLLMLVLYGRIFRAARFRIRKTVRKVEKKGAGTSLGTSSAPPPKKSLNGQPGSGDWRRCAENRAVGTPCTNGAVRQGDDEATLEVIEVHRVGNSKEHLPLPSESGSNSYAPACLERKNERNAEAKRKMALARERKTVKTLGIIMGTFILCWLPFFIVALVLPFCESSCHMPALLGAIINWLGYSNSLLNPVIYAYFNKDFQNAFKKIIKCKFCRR
Type: tissue-based

Structure (SMILES)	Ki
COc1cc(N)c(Cl)cc1C(=O)N[C@H]1CC2CC[C@H](C1)N2Cc1ccco1 (single isomer, unassigned)	2500 nM
O=C(N[C@@H]1CC2CC[C@H](C1)N2CC1CCCO1)c1ccc2ccccc2c1 (single isomer, unassigned)	3300 nM
COc1cccc(C(=O)N[C@@H]2CC3CC[C@H](C2)N3Cc2ccco2)c1OC (single isomer, unassigned; 4b)	3000 nM

What follows are compounds tested against D(2) dopamine receptor (Rattus norvegicus, UniProt P61169) (assay: Displacement of [3H]spiperone from dopamine D2 receptor in rat striatum tissue after 20 mins by scintillation counting). Conditions: not given.
Chain of D(2) dopamine receptor (P61169 whole entry): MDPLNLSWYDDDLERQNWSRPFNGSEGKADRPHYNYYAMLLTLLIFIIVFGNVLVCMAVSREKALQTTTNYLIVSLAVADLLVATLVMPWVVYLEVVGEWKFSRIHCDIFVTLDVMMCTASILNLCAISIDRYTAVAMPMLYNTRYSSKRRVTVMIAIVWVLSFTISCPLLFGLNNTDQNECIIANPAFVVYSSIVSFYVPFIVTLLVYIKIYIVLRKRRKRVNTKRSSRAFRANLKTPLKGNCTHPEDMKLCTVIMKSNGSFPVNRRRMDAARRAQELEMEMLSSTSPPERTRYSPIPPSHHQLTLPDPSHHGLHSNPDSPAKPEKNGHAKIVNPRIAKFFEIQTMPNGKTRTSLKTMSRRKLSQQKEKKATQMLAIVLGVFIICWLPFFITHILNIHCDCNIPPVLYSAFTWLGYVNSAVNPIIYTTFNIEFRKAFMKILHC
Type: tissue-based

Structure (SMILES)	Ki
COc1cc(N)c(Cl)cc1C(=O)N[C@H]1CC2CC[C@H](C1)N2Cc1ccco1 (single isomer, unassigned)	18.2 nM
O=C(N[C@@H]1CC2CC[C@H](C1)N2CC1CCCO1)c1ccc2ccccc2c1 (single isomer, unassigned)	1200 nM
COc1cccc(C(=O)N[C@@H]2CC3CC[C@H](C2)N3Cc2ccco2)c1OC (single isomer, unassigned; 4b)	26.3 nM

Species on record: Mus musculus
Test: not given
Conditions: Swiss albino, 10 mg/kg
Remark: another data set of the same source

Structure (SMILES)	deltaT
COc1cc(N)c(Cl)cc1C(=O)N[C@H]1CC2CC[C@H](C1)N2Cc1ccco1 (single isomer, unassigned)	-0.3 °C

Species on record: Mus musculus
Test: not given
Conditions: Swiss albino, 10 mg/kg
Remark: another data set of the same source

Structure (SMILES)	deltaT
COc1cc(N)c(Cl)cc1C(=O)N[C@H]1CC2CC[C@H](C1)N2Cc1ccco1 (single isomer, unassigned)	-0.1 °C

What follows are compounds tested on Rattus norvegicus (assay: Antipsychotic activity in 8-OH-DPAT-stimulated rat assessed as lower lip retractions at 10 mg/kg, iv administered 45 mins before 8-OH-DPAT challenge measured after 15 to 45 mins (reference value: 2.9 retractions)). Conditions: not given.
Type: functional

Structure (SMILES)	Activity
COc1cc(N)c(Cl)cc1C(=O)N[C@H]1CC2CC[C@H](C1)N2Cc1ccco1 (single isomer, unassigned)	2.6

What follows are compounds tested on Rattus norvegicus (assay: Antipsychotic activity in 8-OH-DPAT-stimulated rat assessed as lower lip retractions at 20 mg/kg, iv administered 45 mins before 8-OH-DPAT challenge measured after 15 to 45 mins (reference value: 2.9 retractions)). Conditions: not given.
Type: functional

Structure (SMILES)	Activity
COc1cc(N)c(Cl)cc1C(=O)N[C@H]1CC2CC[C@H](C1)N2Cc1ccco1 (single isomer, unassigned)	2.7

Species on record: Mus musculus
Test: not given
Conditions: Swiss albino, 20 mg/kg
Remark: another data set of the same source

Structure (SMILES)	deltaT
COc1cc(N)c(Cl)cc1C(=O)N[C@H]1CC2CC[C@H](C1)N2Cc1ccco1 (single isomer, unassigned)	-1 °C

These compounds were tested on Mus musculus (assay: Antipsychotic activity in mouse assessed as reversal of DOI-induced head twitches at 20 mg/kg, ip administered 30 mins before DOI challenge). Conditions: route intraperitoneal.
Type: functional

Structure (SMILES)	Activity
COc1cc(N)c(Cl)cc1C(=O)N[C@H]1CC2CC[C@H](C1)N2Cc1ccco1 (single isomer, unassigned)	100%
O=C(N[C@@H]1CC2CC[C@H](C1)N2CC1CCCO1)c1ccc2ccccc2c1 (single isomer, unassigned)	73%
COc1cccc(C(=O)N[C@@H]2CC3CC[C@H](C2)N3Cc2ccco2)c1OC (single isomer, unassigned; 4b)	47%

Species on record: Mus musculus
Test: not given
Conditions: Swiss albino, 5 mg/kg
Remark: another data set of the same source

Structure (SMILES)	deltaT
COc1cc(N)c(Cl)cc1C(=O)N[C@H]1CC2CC[C@H](C1)N2Cc1ccco1 (single isomer, unassigned)	-0.3 °C

Species on record: Mus musculus
Test: not given
Conditions: Swiss albino, 5 mg/kg
Remark: another data set of the same source

Structure (SMILES)	deltaT
COc1cc(N)c(Cl)cc1C(=O)N[C@H]1CC2CC[C@H](C1)N2Cc1ccco1 (single isomer, unassigned)	0.1 °C

Species on record: Mus musculus
Test: not given
Conditions: Swiss albino, 5 mg/kg
Remark: another data set of the same source

Structure (SMILES)	deltaT
COc1cc(N)c(Cl)cc1C(=O)N[C@H]1CC2CC[C@H](C1)N2Cc1ccco1 (single isomer, unassigned)	0.1 °C

The compounds below were run on Mus musculus (assay: Antipsychotic activity in mouse assessed as reversal of apomorphine-induced mesh climbing response at 10 mg/kg, ip administered 10 mins prior to apomorphine challenge measured after 40 mins). Conditions: not given.
Type: functional, organism-based
Set-up: dose 10 mg/kg

Structure (SMILES)	Activity
COc1cc(N)c(Cl)cc1C(=O)N[C@H]1CC2CC[C@H](C1)N2Cc1ccco1 (single isomer, unassigned)	Active

These compounds were tested on Mus musculus (assay: Antidepressant-like activity in Swiss albino mouse assessed as immobilization time at 20 mg/kg, ip after 30 mins by forced swim test). Conditions: not given.
Type: functional, organism-based
Set-up: dose 20 mg/kg

Structure (SMILES)	Activity
COc1cc(N)c(Cl)cc1C(=O)N[C@H]1CC2CC[C@H](C1)N2Cc1ccco1 (single isomer, unassigned)	inactive

These compounds were tested on Mus musculus (assay: Antipsychotic activity in mouse assessed as reversal of apomorphine-induced mesh climbing response at 10 mg/kg, ip administered 10 mins prior to apomorphine challenge measured after 50 mins). Conditions: not given.
Type: functional, organism-based
Set-up: dose 10 mg/kg

Structure (SMILES)	Activity
COc1cc(N)c(Cl)cc1C(=O)N[C@H]1CC2CC[C@H](C1)N2Cc1ccco1 (single isomer, unassigned)	Active

Each compound was assayed against 5-hydroxytryptamine receptor 2A (Rattus norvegicus, UniProt P14842) (assay: Displacement of [3H]ketanserin from 5HT2A in rat brain cerebral cortex after 20 mins by scintillation counting). Conditions: not given.
Chain of 5-hydroxytryptamine receptor 2A (P14842 whole entry): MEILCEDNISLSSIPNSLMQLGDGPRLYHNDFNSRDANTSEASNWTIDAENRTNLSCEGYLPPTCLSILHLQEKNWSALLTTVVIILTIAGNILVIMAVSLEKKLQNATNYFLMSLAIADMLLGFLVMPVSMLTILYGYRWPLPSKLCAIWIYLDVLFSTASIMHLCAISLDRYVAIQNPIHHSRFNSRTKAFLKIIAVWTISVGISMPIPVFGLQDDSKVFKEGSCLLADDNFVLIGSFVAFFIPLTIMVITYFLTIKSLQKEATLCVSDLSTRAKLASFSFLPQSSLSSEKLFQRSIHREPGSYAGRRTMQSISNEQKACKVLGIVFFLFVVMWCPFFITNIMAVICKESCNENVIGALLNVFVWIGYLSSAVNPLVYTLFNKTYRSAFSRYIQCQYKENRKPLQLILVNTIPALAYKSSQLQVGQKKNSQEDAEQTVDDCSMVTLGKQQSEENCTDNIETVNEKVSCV
Type: tissue-based

Structure (SMILES)	Ki
COc1cc(N)c(Cl)cc1C(=O)N[C@H]1CC2CC[C@H](C1)N2Cc1ccco1 (single isomer, unassigned)	16.6 nM
O=C(N[C@@H]1CC2CC[C@H](C1)N2CC1CCCO1)c1ccc2ccccc2c1 (single isomer, unassigned)	12.3 nM
COc1cccc(C(=O)N[C@@H]2CC3CC[C@H](C2)N3Cc2ccco2)c1OC (single isomer, unassigned; 4b)	745 nM

The compounds below were run on Mus musculus (assay: Antipsychotic activity in mouse assessed as reversal of DOI-induced head twitches at 10 mg/kg, ip administered 30 mins before DOI challenge). Conditions: route intraperitoneal.
Type: functional

Structure (SMILES)	Activity
COc1cc(N)c(Cl)cc1C(=O)N[C@H]1CC2CC[C@H](C1)N2Cc1ccco1 (single isomer, unassigned)	97%
O=C(N[C@@H]1CC2CC[C@H](C1)N2CC1CCCO1)c1ccc2ccccc2c1 (single isomer, unassigned)	63%
COc1cccc(C(=O)N[C@@H]2CC3CC[C@H](C2)N3Cc2ccco2)c1OC (single isomer, unassigned; 4b)	28%

What follows are compounds tested on Mus musculus (assay: Antipsychotic activity in mouse assessed as reversal of apomorphine-induced mesh climbing response at 10 mg/kg, ip administered 10 mins prior to apomorphine challenge measured after 60 mins). Conditions: not given.
Type: functional, organism-based
Set-up: dose 10 mg/kg

Structure (SMILES)	Activity
COc1cc(N)c(Cl)cc1C(=O)N[C@H]1CC2CC[C@H](C1)N2Cc1ccco1 (single isomer, unassigned)	Active

Species on record: Mus musculus
Test: not given
Conditions: Swiss albino, 20 mg/kg
Remark: another data set of the same source

Structure (SMILES)	deltaT
COc1cc(N)c(Cl)cc1C(=O)N[C@H]1CC2CC[C@H](C1)N2Cc1ccco1 (single isomer, unassigned)	-0.8 °C

The compounds below were run on Mus musculus (assay: Antipsychotic activity in mouse assessed as reversal of apomorphine-induced mesh climbing response at 50 mg/kg, ip administered 20 mins prior to apomorphine challenge measured after 120 mins). Conditions: not given.

Structure (SMILES)	Activity
COc1cc(N)c(Cl)cc1C(=O)N[C@H]1CC2CC[C@H](C1)N2Cc1ccco1 (single isomer, unassigned)	Active
O=C(N[C@@H]1CC2CC[C@H](C1)N2CC1CCCO1)c1ccc2ccccc2c1 (single isomer, unassigned)	Active

Species on record: Mus musculus
Test: not given
Conditions: Swiss albino, 20 mg/kg
Remark: another data set of the same source

Structure (SMILES)	deltaT
COc1cc(N)c(Cl)cc1C(=O)N[C@H]1CC2CC[C@H](C1)N2Cc1ccco1 (single isomer, unassigned)	-0.9 °C

Species on record: Mus musculus
Test: not given
Conditions: Swiss albino, 10 mg/kg
Remark: another data set of the same source

Structure (SMILES)	deltaT
COc1cc(N)c(Cl)cc1C(=O)N[C@H]1CC2CC[C@H](C1)N2Cc1ccco1 (single isomer, unassigned)	-0.2 °C

The compounds below were run on Rattus norvegicus (assay: Induction of 5HT1A receptor in rat assesses as lower lip retractions at 10 mg/kg, iv after 15 mins (reference value: 0.1 +/- 0.1 retractions)). Conditions: not given.
Type: functional

Structure (SMILES)	Activity
COc1cc(N)c(Cl)cc1C(=O)N[C@H]1CC2CC[C@H](C1)N2Cc1ccco1 (single isomer, unassigned)	0.2
